In PMC11213733, “Computational approaches identify a transcriptomic fingerprint of drug-induced structural cardiotoxicity” (Cell Biology and Toxicology, 2024):
Where a name gives a salt, the structure may show the parent alone. Read-outs that look alike come from different tables or passages of the source.

Key:
cardiac microtissues [1] = test: ATP depletion (CellTiter Glo Luminescent Cell Viability Assay) in cardiac microtissues; type: cell-based, human; settings: the concentration is the IC30 of ATP depletion, or cell death caused
Method: Cellular ATP concentrations were also assessed using the CellTiter Glo® Luminescent Cell Viability Assay as per the manufacturer’s instructions (Promega).

[2] = ref FDA label, cited from earlier work
cardiac microtissues [3] = test: Ingenuity Pathway Analysis over-representation of differentially expressed genes (activation Z-score); type: cell-based, human; settings: 48hr high; Group 2
cardiac microtissues [4] = test: Transcriptomic profiling (mRNA-seq) and DESeq2 differential gene expression analysis in cardiac microtissues; settings: absolute log2(Fold-Change) > 1, FDR p ≤ 0.05
cardiac microtissues [5] = test: Targeted qRT-PCR of ATAD3C, CDH13, IL6, PTX3, SLC7A5, UCHL1 in cardiac microtissues; type: cell-based, human; settings: Sorafenib 3.74 µM, Sunitinib 3.53 µM, Dasatinib 10.8 µM; for activity at 3.74 µM: Homo sapiens, read-out: % of control
Method: The experiment was performed with three technical replicates across 1-2 independent replicates.

hiPS-CMs = system: hiPS-CMs; set-up: method as in Harmer et al., 2012; settings: 10 µM; ref Harmer et al., 2012; cited from earlier work

SMILES: CNC(=O)c1cc(Oc2ccc(NC(=O)Nc3ccc(Cl)c(C(F)(F)F)c3)cc2)ccn1 [Sorafenib Tosylate]
- Transcriptomic high concentration (µM) = IC30 of ATP depletion (cardiac microtissues [1]): 3.74 µM
- Structural cardiotoxin? ([2]; FDA label references heart failure or a decrease in left ventricular ejection fraction): Y
- Functional cardiotoxin? ([2]; compound annotation): Y
- activation Z-score: Acute Phase Response Signaling (cardiac microtissues [3]): -1.414
- activation Z-score: Adrenomedullin signaling pathway (cardiac microtissues [3]): 0.447
- activation Z-score: Aryl Hydrocarbon Receptor Signaling (cardiac microtissues [3]): -1.342
- activation Z-score: Breast Cancer Regulation by Stathmin1 (cardiac microtissues [3]): -2.111
- activation Z-score: Cardiac Hypertrophy Signaling (Enhanced) (cardiac microtissues [3]): -1.387
- activation Z-score: Cell Cycle: G2/M DNA Damage Checkpoint Regulation (cardiac microtissues [3]): -2.236
- activation Z-score: Colorectal Cancer Metastasis Signaling (cardiac microtissues [3]): -1.633
- activation Z-score: Cyclins and Cell Cycle Regulation (cardiac microtissues [3]): 1.342
- activation Z-score: Endothelin-1 Signaling (cardiac microtissues [3]): -2
- activation Z-score: G-Protein Coupled Receptor Signaling (cardiac microtissues [3]): -1.897
- activation Z-score: HIF1Î± Signaling (cardiac microtissues [3]): -0.447
- activation Z-score: HMGB1 Signaling (cardiac microtissues [3]): -1.897
- activation Z-score: Hepatic Fibrosis Signaling Pathway (cardiac microtissues [3]): -2.111
- activation Z-score: IL-6 Signaling (cardiac microtissues [3]): -1.667
- activation Z-score: IL-8 Signaling (cardiac microtissues [3]): -2
- activation Z-score: ILK Signaling (cardiac microtissues [3]): -1
- activation Z-score: Immunogenic Cell Death Signaling Pathway (cardiac microtissues [3]): -1
- activation Z-score: Kinetochore Metaphase Signaling Pathway (cardiac microtissues [3]): 1.886
- activation Z-score: LXR/RXR Activation (cardiac microtissues [3]): 2.333
- activation Z-score: Leukocyte Extravasation Signaling (cardiac microtissues [3]): -2
- activation Z-score: MIF Regulation of Innate Immunity (cardiac microtissues [3]): -2
- activation Z-score: Macrophage Alternative Activation Signaling Pathway (cardiac microtissues [3]): 2.236
- activation Z-score: Osteoarthritis Pathway (cardiac microtissues [3]): -2.714
- activation Z-score: Oxytocin Signaling Pathway (cardiac microtissues [3]): -2.236
- activation Z-score: PPAR Signaling (cardiac microtissues [3]): 2.236
- activation Z-score: Pulmonary Fibrosis Idiopathic Signaling Pathway (cardiac microtissues [3]): -1.897
- activation Z-score: Pulmonary Healing Signaling Pathway (cardiac microtissues [3]): -0.447
- activation Z-score: Pyridoxal 5'-phosphate Salvage Pathway (cardiac microtissues [3]): 2.236
- activation Z-score: Regulation Of The Epithelial Mesenchymal Transition By Growth Factors Pathway (cardiac microtissues [3]): -1.89
- activation Z-score: Ribonucleotide Reductase Signaling Pathway (cardiac microtissues [3]): -0.816
- activation Z-score: Role of IL-17F in Allergic Inflammatory Airway Diseases (cardiac microtissues [3]): -2
- activation Z-score: Role of JAK family kinases in IL-6-type Cytokine Signaling (cardiac microtissues [3]): -1.414
- activation Z-score: Salvage Pathways of Pyrimidine Ribonucleotides (cardiac microtissues [3]): 2.236
- activation Z-score: Senescence Pathway (cardiac microtissues [3]): -1.89
- activation Z-score: Signaling by Rho Family GTPases (cardiac microtissues [3]): -0.447
- activation Z-score: TREM1 Signaling (cardiac microtissues [3]): -2
- activation Z-score: White Adipose Tissue Browning Pathway (cardiac microtissues [3]): 0
- activation Z-score: Wound Healing Signaling Pathway (cardiac microtissues [3]): -2.714
- number of significant differentially expressed genes, 6hr high (cardiac microtissues [4]; 6 hr, high concentration): 13
- number of significant differentially expressed genes, 6hr low (cardiac microtissues [4]; 6 hr, low concentration): 7
- number of significant differentially expressed genes, 48hr high (cardiac microtissues [4]; 48 hr, high concentration): 268
- number of significant differentially expressed genes, 48hr low (cardiac microtissues [4]; 48 hr, low concentration): 150
- number of significant differentially expressed genes, 72hr high (cardiac microtissues [4]; 72 hr, high concentration): 204
- number of significant differentially expressed genes, 72hr low (cardiac microtissues [4]; 72 hr, low concentration): 143
- activity at 3.74 µM (cardiac microtissues [5]; gene ATAD3C, Run 1): 85.7%
- activity at 3.74 µM (cardiac microtissues [5]; gene CDH13, Run 1): 74%
- activity at 3.74 µM (cardiac microtissues [5]; gene CDH13, Run 2): 113%
- activity at 3.74 µM (cardiac microtissues [5]; gene IL6, Run 1): 35.3%
- activity at 3.74 µM (cardiac microtissues [5]; gene IL6, Run 2): 6.7%
- activity at 3.74 µM (cardiac microtissues [5]; gene PTX3, Run 1): 73.7%
- activity at 3.74 µM (cardiac microtissues [5]; gene PTX3, Run 2): 74%
- activity at 3.74 µM (cardiac microtissues [5]; gene SLC7A5, Run 1): 57%
- activity at 3.74 µM (cardiac microtissues [5]; gene SLC7A5, Run 2): 50.2%
- activity at 3.74 µM (cardiac microtissues [5]; gene UCHL1, Run 1): 66.2%
- activity at 3.74 µM (cardiac microtissues [5]; gene UCHL1, Run 2): 70.9%
- 2^-ΔΔCt of Individual reps, Treated 1 (cardiac microtissues [5]; gene ATAD3C, Run 1): 0.8342
- 2^-ΔΔCt of Individual reps, Treated 2 (cardiac microtissues [5]; gene ATAD3C, Run 1): 0.8632
- 2^-ΔΔCt of Individual reps, Treated 3 (cardiac microtissues [5]; gene ATAD3C, Run 1): 0.8757
- Average 2^-ΔΔCt, Treated (cardiac microtissues [5]; gene ATAD3C, Run 1): 0.8577
- 2^-ΔΔCt of Individual reps, Treated 1 (cardiac microtissues [5]; gene CDH13, Run 1): 0.6992
- 2^-ΔΔCt of Individual reps, Treated 2 (cardiac microtissues [5]; gene CDH13, Run 1): 0.7927
- 2^-ΔΔCt of Individual reps, Treated 3 (cardiac microtissues [5]; gene CDH13, Run 1): 0.7507
- Average 2^-ΔΔCt, Treated (cardiac microtissues [5]; gene CDH13, Run 1): 0.7476
- 2^-ΔΔCt of Individual reps, Treated 1 (cardiac microtissues [5]; gene CDH13, Run 2): 1.515
- 2^-ΔΔCt of Individual reps, Treated 2 (cardiac microtissues [5]; gene CDH13, Run 2): 1.105
- 2^-ΔΔCt of Individual reps, Treated 3 (cardiac microtissues [5]; gene CDH13, Run 2): 0.7867
- Average 2^-ΔΔCt, Treated (cardiac microtissues [5]; gene CDH13, Run 2): 1.136
- 2^-ΔΔCt of Individual reps, Treated 1 (cardiac microtissues [5]; gene IL6, Run 1): 0.3353
- 2^-ΔΔCt of Individual reps, Treated 2 (cardiac microtissues [5]; gene IL6, Run 1): 0.4238
- 2^-ΔΔCt of Individual reps, Treated 3 (cardiac microtissues [5]; gene IL6, Run 1): 0.3063
- Average 2^-ΔΔCt, Treated (cardiac microtissues [5]; gene IL6, Run 1): 0.3551
- 2^-ΔΔCt of Individual reps, Treated 1 (cardiac microtissues [5]; gene IL6, Run 2): 0.169
- 2^-ΔΔCt of Individual reps, Treated 2 (cardiac microtissues [5]; gene IL6, Run 2): 0.0204
- 2^-ΔΔCt of Individual reps, Treated 3 (cardiac microtissues [5]; gene IL6, Run 2): 0.0311
- Average 2^-ΔΔCt, Treated (cardiac microtissues [5]; gene IL6, Run 2): 0.07349
- 2^-ΔΔCt of Individual reps, Treated 1 (cardiac microtissues [5]; gene PTX3, Run 1): 0.6982
- 2^-ΔΔCt of Individual reps, Treated 2 (cardiac microtissues [5]; gene PTX3, Run 1): 0.8787
- 2^-ΔΔCt of Individual reps, Treated 3 (cardiac microtissues [5]; gene PTX3, Run 1): 0.6669
- Average 2^-ΔΔCt, Treated (cardiac microtissues [5]; gene PTX3, Run 1): 0.7479
- 2^-ΔΔCt of Individual reps, Treated 1 (cardiac microtissues [5]; gene PTX3, Run 2): 0.9568
- 2^-ΔΔCt of Individual reps, Treated 2 (cardiac microtissues [5]; gene PTX3, Run 2): 0.4098
- 2^-ΔΔCt of Individual reps, Treated 3 (cardiac microtissues [5]; gene PTX3, Run 2): 0.8963
- Average 2^-ΔΔCt, Treated (cardiac microtissues [5]; gene PTX3, Run 2): 0.7543
- 2^-ΔΔCt of Individual reps, Treated 1 (cardiac microtissues [5]; gene SLC7A5, Run 1): 0.5608
- 2^-ΔΔCt of Individual reps, Treated 2 (cardiac microtissues [5]; gene SLC7A5, Run 1): 0.6339
- 2^-ΔΔCt of Individual reps, Treated 3 (cardiac microtissues [5]; gene SLC7A5, Run 1): 0.5348
- Average 2^-ΔΔCt, Treated (cardiac microtissues [5]; gene SLC7A5, Run 1): 0.5765
- 2^-ΔΔCt of Individual reps, Treated 1 (cardiac microtissues [5]; gene SLC7A5, Run 2): 0.6489
- 2^-ΔΔCt of Individual reps, Treated 2 (cardiac microtissues [5]; gene SLC7A5, Run 2): 0.4574
- 2^-ΔΔCt of Individual reps, Treated 3 (cardiac microtissues [5]; gene SLC7A5, Run 2): 0.4262
- Average 2^-ΔΔCt, Treated (cardiac microtissues [5]; gene SLC7A5, Run 2): 0.5108
- 2^-ΔΔCt of Individual reps, Treated 1 (cardiac microtissues [5]; gene UCHL1, Run 1): 0.6452
- 2^-ΔΔCt of Individual reps, Treated 2 (cardiac microtissues [5]; gene UCHL1, Run 1): 0.6787
- 2^-ΔΔCt of Individual reps, Treated 3 (cardiac microtissues [5]; gene UCHL1, Run 1): 0.6738
- Average 2^-ΔΔCt, Treated (cardiac microtissues [5]; gene UCHL1, Run 1): 0.6659
- 2^-ΔΔCt of Individual reps, Treated 1 (cardiac microtissues [5]; gene UCHL1, Run 2): 0.8432
- 2^-ΔΔCt of Individual reps, Treated 2 (cardiac microtissues [5]; gene UCHL1, Run 2): 0.6978
- 2^-ΔΔCt of Individual reps, Treated 3 (cardiac microtissues [5]; gene UCHL1, Run 2): 0.5876
- Average 2^-ΔΔCt, Treated (cardiac microtissues [5]; gene UCHL1, Run 2): 0.7095

SMILES: COc1ccc(CCN(C)CCCC(C#N)(c2ccc(OC)c(OC)c2)C(C)C)cc1OC (stereo not shown) [verapamil]
- inhibition of calcium transient signal in cardiomyocytes (hiPS-CMs): inhibit almost all of the calcium transient signal
